Where a name gives a salt, the structure may show the parent alone.
molecular target: T1, IRAK4 (Homo sapiens, UniProt Q9NWZ3); experiment: 2-hour 1 mM ATP IRAK4 Biochemical assay (as above, but with 100 pM IRAK4 and 1 mM ATP); conditions: IRAK4 MSD BIOCHEMICAL (1 mM ATP) IC50 (μM), 100 pM IRAK4, 2 hours
T1 sequence (Q9NWZ3 1-460): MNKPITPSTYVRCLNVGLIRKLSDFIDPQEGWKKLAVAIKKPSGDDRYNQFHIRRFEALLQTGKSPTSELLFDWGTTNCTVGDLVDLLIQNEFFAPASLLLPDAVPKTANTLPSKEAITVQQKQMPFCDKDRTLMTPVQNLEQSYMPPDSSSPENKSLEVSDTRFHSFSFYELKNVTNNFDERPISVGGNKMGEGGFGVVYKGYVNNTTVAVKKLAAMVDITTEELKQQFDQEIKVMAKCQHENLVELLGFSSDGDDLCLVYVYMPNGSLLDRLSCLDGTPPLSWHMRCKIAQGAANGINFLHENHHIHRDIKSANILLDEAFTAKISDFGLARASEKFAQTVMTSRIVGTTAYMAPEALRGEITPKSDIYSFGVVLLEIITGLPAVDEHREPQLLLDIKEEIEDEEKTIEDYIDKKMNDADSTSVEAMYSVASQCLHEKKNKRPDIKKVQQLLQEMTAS
In short: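 Run with 100 pM IRAK4 and 1 mM ATP for 2 hours, quenched with EDTA pH 8. Phosphorylated biotinylated peptide captured on streptavidin MSD plates and detected with anti-phosphothreonine antibody plus Sulfo-Tag secondary by electrochemiluminescence.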

SMILES | IC50
CC(C)Oc1nc2nc(C34COC(C)(C3)C4)cn2cc1NC(=O)c1cnn2cccc(F)c12 [Example 349, 4-fluoro-N-(7-isopropoxy-2-(1-methyl-2-oxabicyclo[2.1.1]hexan-4-yl)imidazo[1,2-a]pyrimidin-6-yl)pyrazolo[1,5-a]pyridine-3-carboxamide] | 0.001 µM
COc1ccccc1C(=O)Nc1cn2cc(C34COC(C)(C3)C4)nc2nc1OC1CC1 [Example 350, N-(7-cyclopropoxy-2-(1-methyl-2-oxabicyclo[2.1.1]hexan-4-yl)imidazo[1,2-a]pyrimidin-6-yl)-2-methoxybenzamide] | 0.006 µM
COc1cc(NC(=O)c2cccc(C(F)F)n2)cn2c(F)c(C3CCOCC3)nc12 [Example 351, 6-(difluoromethyl)-N-(3-fluoro-8-methoxy-2-(tetrahydro-2H-pyran-4-yl)imidazo[1,2-a]pyridin-6-yl)picolinamide] | 0.1 µM
CC(C)Oc1cc2nc(C3CCOCC3)c(F)n2cc1NC(=O)c1cccc(C(F)F)n1 [Example 352, 6-(difluoromethyl)-N-(3-fluoro-7-isopropoxy-2-(tetrahydro-2H-pyran-4-yl)imidazo[1,2-a]pyridin-6-yl)picolinamide] | 0.001 µM
CC(C)Oc1cc2nc(C3CCOCC3)c(Cl)n2cc1NC(=O)c1cccc(C(F)F)n1 [Example 353, N-(3-chloro-7-isopropoxy-2-(tetrahydro-2H-pyran-4-yl)imidazo[1,2-a]pyridin-6-yl)-6-(difluoromethyl)picolinamide] | 0.011 µM
CCOc1cc2nc(C(C)(C)O)c(Cl)n2cc1NC(=O)c1cccc(C(F)F)n1 [Example 354, N-(3-chloro-7-ethoxy-2-(2-hydroxypropan-2-yl)imidazo[1,2-a]pyridin-6-yl)-6-(difluoromethyl)picolinamide] | 0.438 µM
CC12CC(c3cn4cc(NC(=O)c5cccc(C(F)F)n5)ccc4n3)(CO1)C2 [Example 357, 6-(difluoromethyl)-N-(2-(1-methyl-2-oxabicyclo[2.1.1]hexan-4-yl)imidazo[1,2-a]pyridin-6-yl)picolinamide] | 0.03 µM
CCOc1cc2nc(C3CCOCC3)cn2cc1NC(=O)c1cccc(C2CCOC2)n1 (stereo not drawn) [Example 367, N-(7-ethoxy-2-(tetrahydro-2H-pyran-4-yl)imidazo[1,2-a]pyridin-6-yl)-6-(tetrahydrofuran-3-yl)picolinamide] | 0.011 µM
COCc1cc2nc(C3CCOCC3)cn2cc1NC(=O)c1cccc(C)n1 [Example 371, N-(7-(methoxymethyl)-2-(tetrahydro-2H-pyran-4-yl)imidazo[1,2-a]pyridin-6-yl)-6-methylpicolinamide 2,2,2-trifluoroacetate] | 0.035 µM
CCOc1cc2nc(C3C4COCC43)cn2cc1NC(=O)c1ccn(C2CC2(F)F)n1 (stereo not drawn) [Example 374, N-(2-(3-oxabicyclo[3.1.0]hexan-6-yl)-7-ethoxyimidazo[1,2-a]pyridin-6-yl)-1-(2,2-difluorocyclopropyl)-1H-pyrazole-3-carboxamide] | 0.002 µM
CCOc1cc2nc(C3C4COCC43)cn2cc1NC(=O)c1coc(C2CC2)n1 (stereo not drawn) [Example 375, N-(2-(3-oxabicyclo[3.1.0]hexan-6-yl)-7-ethoxyimidazo[1,2-a]pyridin-6-yl)-2-cyclopropyloxazole-4-carboxamide] | 0.004 µM
CCOc1cc2nc(C3C4COCC43)cn2cc1NC(=O)c1coc(C(F)F)n1 (stereo not drawn) [Example 376, N-(2-(3-oxabicyclo[3.1.0]hexan-6-yl)-7-ethoxyimidazo[1,2-a]pyridin-6-yl)-2-(difluoromethyl)oxazole-4-carboxamide 2,2,2-trifluoroacetate] | 0.009 µM
CCOc1cc2nc(C3C4COCC43)cn2cc1NC(=O)c1csc(C(F)(F)F)n1 (stereo not drawn) [Example 377, N-(2-(3-oxabicyclo[3.1.0]hexan-6-yl)-7-ethoxyimidazo[1,2-a]pyridin-6-yl)-2-(trifluoromethyl)thiazole-4-carboxamide 2,2,2-trifluoroacetate] | 0.001 µM
CC(C)Oc1cc2nc(C3CCOCC3)cn2cc1NC(=O)c1cccc2c1OCC2 [Example 379, N-(7-isopropoxy-2-(tetrahydro-2H-pyran-4-yl)imidazo[1,2-a]pyridin-6-yl)-2,3-dihydrobenzofuran-7-carboxamide] | 0.002 µM
CC(C)Oc1cc2nc(C3CCOCC3)cn2cc1NC(=O)c1cccc(C2CCOC2)n1 (stereo not drawn) [Example 380, N-(7-isopropoxy-2-(tetrahydro-2H-pyran-4-yl)imidazo[1,2-a]pyridin-6-yl)-6-(tetrahydrofuran-3-yl)picolinamide hydrochloride] | 0.002 µM
CC(C)Oc1cc2nc(C3CCOCC3)cn2cc1NC(=O)c1cc2ccccn2n1 [Example 381, N-(7-isopropoxy-2-(tetrahydro-2H-pyran-4-yl)imidazo[1,2-a]pyridin-6-yl)pyrazolo[1,5-a]pyridine-2-carboxamide 2,2,2-trifluoroacetate] | 0.004 µM
CC(C)Oc1cc2nc(C3CCOCC3)cn2cc1NC(=O)c1cc2ncccn2n1 [Example 382, N-(7-isopropoxy-2-(tetrahydro-2H-pyran-4-yl)imidazo[1,2-a]pyridin-6-yl)pyrazolo[1,5-a]pyrimidine-2-carboxamide 2,2,2-trifluoroacetate] | 0.022 µM
COCCn1ccc(C(=O)Nc2cn3cc(C4CCOCC4)nc3cc2OC(C)C)n1 [Example 383, N-(7-isopropoxy-2-(tetrahydro-2H-pyran-4-yl)imidazo[1,2-a]pyridin-6-yl)-1-(2-methoxyethyl)-1H-pyrazole-3-carboxamide 2,2,2-trifluoroacetate] | 0.014 µM
CC(C)Oc1cc2nc(C3CCOCC3)cn2cc1NC(=O)c1ccn(C)n1 [Example 384, N-(7-isopropoxy-2-(tetrahydro-2H-pyran-4-yl)imidazo[1,2-a]pyridin-6-yl)-1-methyl-1H-pyrazole-3-carboxamide] | 0.004 µM
Cc1nc(C(=O)Nc2cn3cc(C4CCOCC4)nc3cc2OC(C)C)co1 [Example 386, N-(7-isopropoxy-2-(tetrahydro-2H-pyran-4-yl)imidazo[1,2-a]pyridin-6-yl)-2-methyloxazole-4-carboxamide] | 0.002 µM
CC(C)Oc1cc2nc(C3CCOCC3)cn2cc1NC(=O)c1coc(C2CCOCC2)n1 [Example 387, N-(7-isopropoxy-2-(tetrahydro-2H-pyran-4-yl)imidazo[1,2-a]pyridin-6-yl)-2-(tetrahydro-2H-pyran-4-yl)oxazole-4-carboxamide 2,2,2-trifluoroacetate] | 0.001 µM
COc1cccc(C(=O)Nc2cn3cc(C4CCOCC4)nc3cc2C(F)F)n1 [Example 389, N-(7-(difluoromethyl)-2-(tetrahydro-2H-pyran-4-yl)imidazo[1,2-a]pyridin-6-yl)-6-methoxypicolinamide 2,2,2-trifluoroacetate] | 0.016 µM
Cn1ccc(C(=O)Nc2cn3cc(C45COC(C)(C4)C5)nc3cc2C(F)F)n1 [Example 390, N-(7-(difluoromethyl)-2-(1-methyl-2-oxabicyclo[2.1.1]hexan-4-yl)imidazo[1,2-a]pyridin-6-yl)-1-methyl-1H-pyrazole-3-carboxamide 2,2,2-trifluoroacetate] | 0.072 µM
COc1ncccc1C(=O)Nc1cn2cc(C34COC(C)(C3)C4)nc2cc1C(F)F [Example 391, N-(7-(difluoromethyl)-2-(1-methyl-2-oxabicyclo[2.1.1]hexan-4-yl)imidazo[1,2-a]pyridin-6-yl)-2-methoxynicotinamide 2,2,2-trifluoroacetate] | 0.021 µM
Cc1cccc(C(=O)Nc2cn3cc(C45COC(C)(C4)C5)nc3cc2C(F)F)n1 [Example 392, N-(7-(difluoromethyl)-2-(1-methyl-2-oxabicyclo[2.1.1]hexan-4-yl)imidazo[1,2-a]pyridin-6-yl)-6-methylpicolinamide 2,2,2-trifluoroacetate] | 0.008 µM
CC12CC(c3cn4cc(NC(=O)c5cccc(C(F)F)n5)c(C(F)F)cc4n3)(CO1)C2 [Example 393, 6-(difluoromethyl)-N-(7-(difluoromethyl)-2-(1-methyl-2-oxabicyclo[2.1.1]hexan-4-yl)imidazo[1,2-a]pyridin-6-yl)picolinamide 2,2,2-trifluoroacetate] | 0.003 µM
O=C(Nc1cn2cc(C3CCOCC3)nc2cc1OC(F)F)c1cccc(C(F)F)n1 [Example 394, N-(7-(difluoromethoxy)-2-(tetrahydro-2H-pyran-4-yl)imidazo[1,2-a]pyridin-6-yl)-6-(difluoromethyl)picolinamide] | 0.001 µM
CC12CC(c3cn4cc(NC(=O)c5cccc(C(F)F)n5)c(OC(F)F)cc4n3)(CO1)C2 [Example 395, N-(7-(difluoromethoxy)-2-(1-methyl-2-oxabicyclo[2.1.1]hexan-4-yl)imidazo[1,2-a]pyridin-6-yl)-6-(difluoromethyl)picolinamide 2,2,2-trifluoroacetate] | 0.001 µM
COc1ncccc1C(=O)Nc1cn2cc(C34COC(C)(C3)C4)nc2cc1OC(F)F [Example 396, N-(7-(difluoromethoxy)-2-(1-methyl-2-oxabicyclo[2.1.1]hexan-4-yl)imidazo[1,2-a]pyridin-6-yl)-2-methoxynicotinamide 2,2,2-trifluoroacetate] | 0.002 µM
Cn1ccc(C(=O)Nc2cn3cc(C45COC(C)(C4)C5)nc3cc2OC(F)F)n1 [Example 397, N-(7-(difluoromethoxy)-2-(1-methyl-2-oxabicyclo[2.1.1]hexan-4-yl)imidazo[1,2-a]pyridin-6-yl)-1-methyl-1H-pyrazole-3-carboxamide 2,2,2-trifluoroacetate] | 0.021 µM

From patent publication US20220089592A1, “IMIDAZO[1,2-A]PYRIDINYL DERIVATIVES AS IRAK4 INHIBITORS” (priority 2019, published 2022)
